Test results as given in the CheMixHub drug solubility set.

Experiment: xn = mol fraction of the nth substance listed, in the solute-free solvent

Cc1ncc(CO)c(CO)c1O.Cl + O + CC#N
solubility (g/100 g solution)
Conditions	278.15 K	283.15 K	288.15 K	293.15 K	298.15 K	303.15 K	308.15 K	313.15 K
x2 = 0.3	0.681	0.776	0.889	1.02	1.16	1.3	1.47	1.67
x2 = 0.4	2.06	2.27	2.65	2.92	3.32	3.7	4.04	4.51
x2 = 0.5	3.81	4.09	4.73	5.11	5.79	6.6	7.19	8.12
x2 = 0.6	5.82	6.51	7.44	8.31	9.5	10.3	11.2	12.6
x2 = 0.7	8.18	9.25	10.4	11.8	13.4	14.2	15.5	17.9
x2 = 0.8	10.6	11.9	13.4	15.2	16.6	18.3	20	23.4
x2 = 0.9	11.5	13.3	14.6	17	18.6	20.7	22.7	26.3

CC(S)C(=O)NCC(=O)O (configuration not stated) + CC(C)CO + Cc1ccccc1
solubility (g/100 g solution)
Conditions	273.15 K	278.15 K	283.15 K	288.15 K	293.15 K	298.15 K	303.15 K	308.15 K	313.15 K	318.15 K
x2 = 0.2371	0.622	0.677	0.744	0.819	0.9	0.989	1.09	1.21	1.34	1.48
x2 = 0.4531	1.14	1.3	1.45	1.64	1.87	2.12	2.37	2.63	2.92	3.35
x2 = 0.6509	1.71	1.98	2.28	2.67	3.04	3.56	4.09	4.71	5.39	6.3
x2 = 0.8325	2.92	3.45	4.01	4.57	5.19	5.87	6.57	7.38	8.31	9.34

CC1CCC2C(C)C(OC(=O)CCC(=O)O)OC3OC4(C)CCC1C32OO4 (configuration not stated) + CCO + O
solubility (g/100 g solution)
Conditions	278.15 K	283.15 K	288.15 K	293.15 K	298.15 K	303.15 K	308.15 K	313.15 K	318.15 K
x2 = 0.04179	0.113	0.146	0.183	0.23	0.279	0.348	0.427	0.517	0.627
x2 = 0.08949	0.369	0.462	0.563	0.69	0.817	0.994	1.19	1.41	1.66
x2 = 0.1436	0.816	0.995	1.19	1.43	1.66	1.97	2.32	2.69	3.12
x2 = 0.2067	1.38	1.65	1.94	2.29	2.62	3.07	3.55	4.06	4.64
x2 = 0.2813	1.97	2.33	2.69	3.13	3.56	4.1	4.66	5.26	5.94
x2 = 0.3699	2.54	2.92	3.37	3.87	4.36	4.95	5.59	6.25	6.96
x2 = 0.4771	3.08	3.48	3.92	4.47	5.03	5.67	6.34	7.03	7.74
x2 = 0.6102	3.61	4.02	4.51	5.11	5.67	6.29	6.98	7.63	8.37
x2 = 0.7797	4.05	4.46	4.95	5.55	6.12	6.72	7.39	8.06	8.72
